Assay results as given in patent US10202380B2, “Pesticidally active tetracyclic derivatives with sulfur containing substituents” (Syngenta Participations AG, priority 2015, dated 2019).

What was measured:
Format in all cases: in vivo
Diabrotica balteata = Diabrotica balteata (Corn Root Worm); conditions: 96 h, read-out: effect in at least one of the two categories (mortality or growth inhibition)
Description: Maize sprouts placed onto an agar layer in 24-well microtiter plates were treated with aqueous test solutions prepared from 10,000 ppm DMSO stock solutions by spraying. After drying, the plates were infested with L2 larvae (6 to 10 per well). The samples were assessed for mortality and growth inhibition in comparison to untreated samples 4 days after infestation.

Euschistus heros = Euschistus heros (Neotropical Brown Stink Bug); conditions: in Glycine max, 120 h, read-out: effect in at least one of the two categories (mortality or growth inhibition)
Description: Soybean leaves on agar in 24-well microtiter plates were sprayed with aqueous test solutions prepared from 10,000 ppm DMSO stock solutions. After drying the leaves were infested with N2 nymphs. The samples were assessed for mortality and growth inhibition in comparison to untreated samples 5 days after infestation.

Myzus persicae = Myzus persicae (Green Peach Aphid): Feeding/Contact Activity; conditions: foliar, 144 h
Description: Sunflower leaf discs were placed onto agar in a 24-well microtiter plate and sprayed with aqueous test solutions prepared from 10,000 ppm DMSO stock solutions. After drying, the leaf discs were infested with an aphid population of mixed ages. The samples were assessed for mortality 6 days after infestation.

Plutella xylostella = Plutella xylostella (Diamond Back Moth); conditions: 120 h, read-out: effect in at least one of the two categories (mortality or growth inhibition)
Description: 24-well microtiter plates with artificial diet were treated with aqueous test solutions prepared from 10,000 ppm DMSO stock solutions by pipetting. After drying, the plates were infested with L2 larvae (10 to 15 per well). The samples were assessed for mortality and growth inhibition in comparison to untreated samples 5 days after infestation.

Spodoptera littoralis [1] = test: Spodoptera littoralis (Egyptian Cotton Leaf Worm), sprayed cotton leaf discs; conditions: foliar, 72 h, read-out: control (mortality, anti-feedant effect, growth inhibition)
Description: Cotton leaf discs were placed onto agar in 24-well microtiter plates and sprayed with aqueous test solutions prepared from 10,000 ppm DMSO stock solutions. After drying the leaf discs were infested with five L1 larvae. The samples were assessed for mortality, anti-feeding effect, and growth inhibition in comparison to untreated samples 3 days after infestation. Control of Spodoptera littoralis by a test sample is given when at least one of the categories mortality, anti-feedant effect, and growth inhibition is higher than the untreated sample.

Spodoptera littoralis [2] = test: Spodoptera littoralis (Egyptian Cotton Leaf Worm), compound in agar absorbed by lettuce roots; conditions: 144 h, read-out: effect in at least one of the three categories (mortality, anti-feeding, or growth inhibition)
Description: Test compounds were applied by pipette from 10,000 ppm DMSO stock solutions into 24-well plates and mixed with agar. Lettuce seeds were placed onto the agar and the multi well plate was dosed by another plate which contained also agar. After 7 days the compound was absorbed by the roots and the lettuce grew into the lid plate. The lettuce leaves were then cut off into the lid plate. Spodoptera eggs were pipetted through a plastic stencil onto a humid gel blotting paper and the lid plate was closed with it. The samples were assessed for mortality, anti-feedant effect and growth inhibition in comparison to untreated samples 6 days after infestation.

CCSc1c(-c2nc3cc(C(F)(F)F)n(CC)c(=O)c3n2C)sc2ccccc12 [Compound A1, 5-ethyl-2-(3-ethylsulfanylbenzothiophen-2-yl)-3-methyl-6-(trifluoromethyl)imidazo[4,5-c]pyridin-4-one]
≥ 80%: percent control (mortality or growth inhibition) at 200 ppm (Diabrotica balteata) | percent control (mortality or growth inhibition) at 200 ppm (Euschistus heros) | mortality at 200 ppm (Myzus persicae) | percent control (mortality or growth inhibition) at 200 ppm (Plutella xylostella)

CCn1c(C(F)(F)F)cc2nc(-c3sc4ccccc4c3S(=O)(=O)CC)n(C)c2c1=O [Compound A2, 5-ethyl-2-(3-ethylsulfonylbenzothiophen-2-yl)-3-methyl-6-(trifluoromethyl)imidazo[4,5-c] pyridin-4-one]
≥ 80%: percent control (mortality or growth inhibition) at 200 ppm (Diabrotica balteata) | percent control (mortality or growth inhibition) at 200 ppm (Euschistus heros) | mortality at 200 ppm (Myzus persicae) | percent control (mortality or growth inhibition) at 200 ppm (Plutella xylostella) | mortality at 200 ppm (Spodoptera littoralis [1]) | percent control (mortality, anti-feedant effect or growth inhibition) at 12.5 ppm (Spodoptera littoralis [2])
